Assay: Tissue concentration of aprepitant by HPLC after oral or inhaled administration to rabbits
Assay type: in vivo, New Zealand albino rabbits
Conditions: for concentration at 7 days: New Zealand White, rabbit, lung, seven days
Experimental: Herein, New Zealand albino rabbits (New Zealand White Rabbits) with an initial average weight of approximately 3 kg were used. The rabbits were fed ad libitum and were monitored daily to check that signs of toxicity had not appeared. […] This mixture was administered as an aerosol to the airways of a group of 3 of said rabbits (Group 5) in a dose of 0.05 mg/kg body weight per day, to another group of three rabbits (Group 6) in a dose of 0.1 mg/kg body weight per day, to another group of three rabbits (group 7) in a dose of 0.2 mg/kg body weight per day and to another group of three rabbits (Group 8) in a dose of 0.4 mg/kg body weight per day. […] After seven days of treatment all animals were euthanized and necropsied. […] Samples were taken at the peripheral level of the lung parenchyma, just below the pleural surface. Tissue samples were also taken from the nasal cavity, pharynx, larynx and bronchi. […] The average is the arithmetic average calculated for each row or column of each table. The SD is the standard deviation, calculated for each row or column of each table.

SMILES: C[C@@H](OC1OCCN(Cc2nc(=O)[nH][nH]2)C1c1ccc(F)cc1)c1cc(C(F)(F)F)cc(C(F)(F)F)c1 (stereo in doubt) [Aprepitant, 5-([(2R,3S)-2-((R)-1-[3,5-bis(trifluoromethyl)phenyl]ethoxy)-3-(4-fluorophenyl)morpholino]methyl)-1H-1,2,4-triazol-3(2H)-one]
- concentration at 7 days (left superior lobe, po, 10 mg/kg/day, Lung concentration of aprepitant LSPI (left superior lobe), Group 1, oral 10 mg/kg per day, individual cases): 500 ng/g
- concentration at 7 days (left superior lobe, po, 10 mg/kg/day, Lung concentration of aprepitant LSPI, Average ± SD of cases, Group 1, oral 10 mg/kg per day): 600 ng/g
- concentration at 7 days (left superior lobe, po, 40 mg/kg/day, Lung concentration of aprepitant LSPI (left superior lobe), Group 2, oral 40 mg/kg per day, individual cases): 5300 ng/g
- concentration at 7 days (left superior lobe, po, 40 mg/kg/day, Lung concentration of aprepitant LSPI, Average ± SD of cases, Group 2, oral 40 mg/kg per day): 4300 ng/g
- concentration at 7 days (left superior lobe, po, 80 mg/kg/day, Lung concentration of aprepitant LSPI (left superior lobe), Group 3, oral 80 mg/kg per day, individual cases): 3900 ng/g
- concentration at 7 days (left superior lobe, po, 80 mg/kg/day, Lung concentration of aprepitant LSPI, Average ± SD of cases, Group 3, oral 80 mg/kg per day): 4700 ng/g
- concentration at 7 days (right inferior lobe, inhaled, 0.4 mg/kg/day, Lung concentration of aprepitant LIPD (right inferior lobe), Group 8, inhalation (aerosol, olive oil) 0.4 mg/kg per day, individual cases): 9900 ng/g
- concentration at 7 days (right inferior lobe, inhaled, 0.4 mg/kg/day, Lung concentration of aprepitant LIPD, Average ± SD of cases, Group 8, inhalation (aerosol, olive oil) 0.4 mg/kg per day): 10100 ng/g
- concentration at 7 days (right inferior lobe, po, 10 mg/kg/day, Lung concentration of aprepitant LIPD (right inferior lobe), Group 1, oral 10 mg/kg per day, individual cases): 600 ng/g
- concentration at 7 days (right inferior lobe, po, 10 mg/kg/day, Lung concentration of aprepitant LIPD, Average ± SD of cases, Group 1, oral 10 mg/kg per day): 800 ng/g
- concentration at 7 days (right inferior lobe, po, 40 mg/kg/day, Lung concentration of aprepitant LIPD (right inferior lobe), Group 2, oral 40 mg/kg per day, individual cases): 3300 ng/g
- concentration at 7 days (right inferior lobe, po, 40 mg/kg/day, Lung concentration of aprepitant LIPD, Average ± SD of cases, Group 2, oral 40 mg/kg per day): 3500 ng/g
- concentration at 7 days (right inferior lobe, po, 80 mg/kg/day, Lung concentration of aprepitant LIPD (right inferior lobe), Group 3, oral 80 mg/kg per day, individual cases): 5100 ng/g
- concentration at 7 days (right inferior lobe, po, 80 mg/kg/day, Lung concentration of aprepitant LIPD, Average ± SD of cases, Group 3, oral 80 mg/kg per day): 5500 ng/g
- concentration at 7 days (right middle lobe, inhaled, 0.4 mg/kg/day, Lung concentration of aprepitant LMPD (right middle lobe), Group 8, inhalation (aerosol, olive oil) 0.4 mg/kg per day, individual cases): 10000 ng/g
- concentration at 7 days (right middle lobe, inhaled, 0.4 mg/kg/day, Lung concentration of aprepitant LMPD, Average ± SD of cases, Group 8, inhalation (aerosol, olive oil) 0.4 mg/kg per day): 10000 ng/g
- concentration at 7 days (right middle lobe, po, 10 mg/kg/day, Lung concentration of aprepitant LMPD (right middle lobe), Group 1, oral 10 mg/kg per day, individual cases): 1100 ng/g
- concentration at 7 days (right middle lobe, po, 10 mg/kg/day, Lung concentration of aprepitant LMPD, Average ± SD of cases, Group 1, oral 10 mg/kg per day): 1300 ng/g
- concentration at 7 days (right middle lobe, po, 40 mg/kg/day, Lung concentration of aprepitant LMPD (right middle lobe), Group 2, oral 40 mg/kg per day, individual cases): 4200 ng/g
- concentration at 7 days (right middle lobe, po, 40 mg/kg/day, Lung concentration of aprepitant LMPD, Average ± SD of cases, Group 2, oral 40 mg/kg per day): 4000 ng/g
- concentration at 7 days (right middle lobe, po, 80 mg/kg/day, Lung concentration of aprepitant LMPD (right middle lobe), Group 3, oral 80 mg/kg per day, individual cases): 4800 ng/g
- concentration at 7 days (right middle lobe, po, 80 mg/kg/day, Lung concentration of aprepitant LMPD, Average ± SD of cases, Group 3, oral 80 mg/kg per day): 5200 ng/g
- concentration at 7 days (right middle lobe, po, 100 mg/kg/day, Lung concentration of aprepitant LMPD (right middle lobe), Group 4, oral 100 mg/kg per day, individual cases): 5800 ng/g
- concentration at 7 days (right superior lobe, inhaled, 0.4 mg/kg/day, Lung concentration of aprepitant LSPD (right superior lobe), Group 8, inhalation (aerosol, olive oil) 0.4 mg/kg per day, individual cases): 10100 ng/g
- concentration at 7 days (right superior lobe, inhaled, 0.4 mg/kg/day, Lung concentration of aprepitant LSPD, Average ± SD of cases, Group 8, inhalation (aerosol, olive oil) 0.4 mg/kg per day): 9900 ng/g
- concentration at 7 days (right superior lobe, po, 10 mg/kg/day, Lung concentration of aprepitant LSPD, Average ± SD of cases, Group 1, oral 10 mg/kg per day): 900 ng/g
- concentration at 7 days (right superior lobe, po, 40 mg/kg/day, Lung concentration of aprepitant LSPD (right superior lobe), Group 2, oral 40 mg/kg per day, individual cases): 3200 ng/g
- concentration at 7 days (right superior lobe, po, 40 mg/kg/day, Lung concentration of aprepitant LSPD, Average ± SD of cases, Group 2, oral 40 mg/kg per day): 3500 ng/g
- concentration at 7 days (right superior lobe, po, 80 mg/kg/day, Lung concentration of aprepitant LSPD (right superior lobe), Group 3, oral 80 mg/kg per day, individual cases): 4900 ng/g
- concentration at 7 days (right superior lobe, po, 80 mg/kg/day, Lung concentration of aprepitant LSPD, Average ± SD of cases, Group 3, oral 80 mg/kg per day): 4100 ng/g
- concentration at 7 days (right superior lobe, po, 100 mg/kg/day, Lung concentration of aprepitant LSPD (right superior lobe), Group 4, oral 100 mg/kg per day, individual cases): 5100 ng/g
- relationship between dose and concentration in the lungs (inhalation, 0.05 to 0.4 mg/kg per day): proportional to the dose administered by inhalation

From patent publication US20170290774A1, “NEUROKININ-1 RECEPTOR ANTAGONIST COMPOSITION FOR TREATMENT OF DISEASES AND CONDITIONS OF THE RESPIRATORY TRACT” (PLUS VITECH, S.L., priority 2014, published 2017)
